Assay results reported in patent publication US11970513B2, “Advanced glycation end product analogues” (Phytoquest Limited, priority 2012, dated 2024).
Read-outs that look alike come from different tables or passages of the source.

How the values were obtained:
α-L-fucosidase = biological target: T1, α-L-fucosidase (Bos taurus, UniProt Q2KIM0); test: Glycosidase assay, α-L-fucosidase (bovine kidney); type: biochemical; details: 0.2 mM, negative value = stabilisation/promotion, read-out: percentage inhibition
T1 construct: purchased Sigma
T1 sequence (Q2KIM0 23-468): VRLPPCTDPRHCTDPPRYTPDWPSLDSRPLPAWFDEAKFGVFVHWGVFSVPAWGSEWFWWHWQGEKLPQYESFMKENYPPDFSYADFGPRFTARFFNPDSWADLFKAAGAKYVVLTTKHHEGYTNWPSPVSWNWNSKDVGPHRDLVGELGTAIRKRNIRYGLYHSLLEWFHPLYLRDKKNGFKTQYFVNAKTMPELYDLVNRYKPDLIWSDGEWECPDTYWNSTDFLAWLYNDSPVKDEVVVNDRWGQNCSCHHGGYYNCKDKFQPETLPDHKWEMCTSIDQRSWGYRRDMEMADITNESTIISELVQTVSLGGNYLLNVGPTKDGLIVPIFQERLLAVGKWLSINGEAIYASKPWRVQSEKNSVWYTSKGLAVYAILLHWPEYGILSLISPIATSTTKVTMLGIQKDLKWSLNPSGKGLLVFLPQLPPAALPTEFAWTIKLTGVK
Method: (§1) All enzymes and para-nitrophenyl substrates were purchased from Sigma, with the exception of beta-mannosidase which came from Megazyme. Enzymes were assayed at 27° C. in 0.1M citric acid/0.2M disodium hydrogen phosphate buffers at the optimum pH for the enzyme. The incubation mixture consisted of 10 μl enzyme solution, 10 μl of 1 mg/ml aqueous solution of sample and 50 μl of the appropriate 5 mM para-nitrophenyl substrate made up in buffer at the optimum pH for the enzyme. The reactions were stopped by addition of 70 μl 0.4M glycine (pH 10.4) during the exponential phase of the reaction, which had been determined at the beginning using uninhibited assays in which water replaced inhibitor. Final absorbances were read at 405 nm using a Versamax microplate reader (Molecular Devices). Assays were carried out in triplicate, and the values given are means of the three replicates per assay. The method was carried out as described in Watson et al. (1997) Phytochemistry 46 (2): 255-259.

α-D-mannosidase = biological target: T2, α-D-mannosidase (Canavalia ensiformis, UniProt C0HJB3); test: Glycosidase assay, α-D-mannosidase (jack bean); type: biochemical, Jack bean (Canavalia ensiformis); details: read-out: percentage inhibition
T2 construct: purchased Sigma
T2 sequence (C0HJB3 1-981): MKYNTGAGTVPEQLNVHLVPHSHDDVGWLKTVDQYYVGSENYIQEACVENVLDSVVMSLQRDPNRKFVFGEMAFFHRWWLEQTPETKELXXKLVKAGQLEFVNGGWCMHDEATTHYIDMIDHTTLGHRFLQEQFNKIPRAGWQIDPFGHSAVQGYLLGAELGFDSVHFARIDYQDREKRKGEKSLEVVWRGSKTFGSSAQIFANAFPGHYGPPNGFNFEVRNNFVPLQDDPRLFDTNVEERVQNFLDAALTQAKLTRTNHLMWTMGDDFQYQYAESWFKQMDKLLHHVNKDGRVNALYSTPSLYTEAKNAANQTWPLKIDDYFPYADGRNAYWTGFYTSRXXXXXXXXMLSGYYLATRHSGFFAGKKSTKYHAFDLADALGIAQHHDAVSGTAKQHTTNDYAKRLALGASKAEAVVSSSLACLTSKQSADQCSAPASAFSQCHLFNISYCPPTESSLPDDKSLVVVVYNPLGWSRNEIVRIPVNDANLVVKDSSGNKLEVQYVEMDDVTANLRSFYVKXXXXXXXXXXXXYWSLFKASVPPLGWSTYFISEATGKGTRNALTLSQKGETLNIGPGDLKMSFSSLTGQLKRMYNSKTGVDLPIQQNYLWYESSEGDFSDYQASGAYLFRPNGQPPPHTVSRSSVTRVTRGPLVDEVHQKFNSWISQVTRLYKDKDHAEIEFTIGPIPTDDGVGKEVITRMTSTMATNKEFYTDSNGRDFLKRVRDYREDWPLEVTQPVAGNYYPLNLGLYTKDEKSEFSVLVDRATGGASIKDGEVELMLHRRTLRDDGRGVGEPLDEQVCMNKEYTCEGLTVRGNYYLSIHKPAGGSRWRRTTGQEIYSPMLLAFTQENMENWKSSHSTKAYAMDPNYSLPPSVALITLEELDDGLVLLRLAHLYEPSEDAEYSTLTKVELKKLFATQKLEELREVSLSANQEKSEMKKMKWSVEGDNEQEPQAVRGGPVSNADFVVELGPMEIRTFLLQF
Method: as §1

Amyloglucosidase = biological target: T3, Amyloglucosidase (Aspergillus niger, UniProt P69328); test: Glycosidase assay, amyloglucosidase (Aspergillus niger); type: biochemical; details: 0.2 mM, negative value = stabilisation/promotion, read-out: percentage inhibition
T3 construct: purchased Sigma
Method: as §1

[1] = biological target: T4, N-acetyl-β-D-hexosaminidase (Aspergillus oryzae, UniProt Q8J2T0); test: Glycosidase assay, N-acetyl-β-D-hexosaminidase (Aspergillus oryzae); type: biochemical; details: 0.2 mM, negative value = stabilisation/promotion, read-out: percentage inhibition
T4 construct: purchased Sigma
Method: as §1

α-D-glucosidase [2] = test: Glycosidase assay, α-D-glucosidase (Bacillus sterothermophilus); type: biochemical; details: 0.2 mM, negative value = stabilisation/promotion
Method: as §1

β-D-mannosidase = test: Glycosidase assay, β-D-mannosidase (Cellullomonas fimi); type: biochemical; details: 0.2 mM, negative value = stabilisation/promotion
Method: as §1

glycogen phosphorylase b = biological target: T5, glycogen phosphorylase b (Oryctolagus cuniculus, UniProt P00489); test: Glycogen phosphorylase (GPb) activity; type: biochemical
T5 construct: purchased Sigma-Aldrich Fine Chemicals (St. Louis, Mo, USA)
T5 sequence (P00489 1-843): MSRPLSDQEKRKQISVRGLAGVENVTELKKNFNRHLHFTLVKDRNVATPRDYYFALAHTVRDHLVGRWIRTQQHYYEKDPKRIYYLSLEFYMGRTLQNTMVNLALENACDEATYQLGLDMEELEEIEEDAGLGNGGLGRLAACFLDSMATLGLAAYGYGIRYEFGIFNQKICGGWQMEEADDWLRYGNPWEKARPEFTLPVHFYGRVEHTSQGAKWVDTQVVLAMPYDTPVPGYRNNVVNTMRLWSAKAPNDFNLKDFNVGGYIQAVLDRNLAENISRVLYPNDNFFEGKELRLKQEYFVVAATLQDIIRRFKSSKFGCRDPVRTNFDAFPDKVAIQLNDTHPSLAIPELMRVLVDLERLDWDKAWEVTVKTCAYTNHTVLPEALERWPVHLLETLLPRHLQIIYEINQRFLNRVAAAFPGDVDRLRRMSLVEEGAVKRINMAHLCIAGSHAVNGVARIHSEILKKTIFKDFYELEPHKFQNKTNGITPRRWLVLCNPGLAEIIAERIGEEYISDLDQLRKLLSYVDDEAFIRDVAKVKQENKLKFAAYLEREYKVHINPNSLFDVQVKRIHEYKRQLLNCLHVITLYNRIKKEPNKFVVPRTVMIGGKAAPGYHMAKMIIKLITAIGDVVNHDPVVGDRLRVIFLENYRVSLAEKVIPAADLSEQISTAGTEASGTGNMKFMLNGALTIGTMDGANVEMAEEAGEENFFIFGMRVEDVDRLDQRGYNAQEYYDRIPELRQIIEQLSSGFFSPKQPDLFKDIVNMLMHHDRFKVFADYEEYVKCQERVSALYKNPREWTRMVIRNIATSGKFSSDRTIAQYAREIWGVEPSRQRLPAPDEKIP
Method: N2-beta-D-Fructopyranos-1-yl-Arginine and 1-Deoxy-1-(N-γ-aminobutyric acid)fructose were tested on glycogen phosphorylase and found to give weak inhibition (14.2 and 5.5% respectively at 400 μM.
Materials. Phosphoglucomutase, glucose-6-phosphate dehydrogenase, glucose-1,6-bisphosphate, glycogen phosphorylase b, α-D-glucose 1-phosphate dipotassium salt hydrate were purchased from Sigma-Aldrich Fine Chemicals (St. Louis, Mo, USA). Glycogen and caffeine were purchased from Nacalai Tesque (Kyoto, Japan). Other chemicals were from Wako Pure Chemical industries (Osaka, Japan).
Measurement of GPb activity. GPb activity was measured in the direction of glycogenolysis using 2 mg/mL glycogen as the substrate in 45 mM phosphate buffer at pH 6.8, containing 0.1 mM EDTA. […] The rate of enzyme-catalysed reaction in the medium can be followed as the increase in absorbance at 340 nm and 25° C. due to the formation of NADPH. GPb activity was also measured in the direction of glycogen synthesis using 25 mM glucose-1-P as substrate in a 250 mM Tris-malate buffer (pH 6.8), containing 5 mg/mL glycogen, 1 mM AMP, 15 mM cysteine, and glycogen phosphorylase b. […] Pi was measured by the Fiske-Subbarow method. The rate of enzyme-catalysed reaction in the medium was followed as the Increase in absorbance at 660 nm.

α-D-galactosidase = biological target: T6, α-D-galactosidase (Coffea arabica, UniProt Q42656); test: Glycosidase assay, α-D-galactosidase (green coffee bean); type: biochemical; details: 0.2 mM, Green coffee bean (Coffea sp.), negative value = stabilisation/promotion, read-out: percentage inhibition
T6 construct: purchased Sigma
Method: as §1

α-D-glucosidase [3] = biological target: T7, α-D-glucosidase (Oryza sativa subsp. japonica, UniProt Q653V7); test: Glycosidase assay, α-D-glucosidase (rice); type: biochemical; details: 0.2 mM, Rice (Oryza saliva), negative value = stabilisation/promotion, read-out: percentage inhibition
T7 construct: purchased Sigma
Method: as §1

β-glucuronidase [4] = biological target: T8, β-glucuronidase (Bos taurus, UniProt A3KMY8); test: Glycosidase assay, β-glucuronidase (bovine liver); type: biochemical; details: for inhibition at 200 µM: read-out: percentage inhibition
T8 sequence (A3KMY8 1-652): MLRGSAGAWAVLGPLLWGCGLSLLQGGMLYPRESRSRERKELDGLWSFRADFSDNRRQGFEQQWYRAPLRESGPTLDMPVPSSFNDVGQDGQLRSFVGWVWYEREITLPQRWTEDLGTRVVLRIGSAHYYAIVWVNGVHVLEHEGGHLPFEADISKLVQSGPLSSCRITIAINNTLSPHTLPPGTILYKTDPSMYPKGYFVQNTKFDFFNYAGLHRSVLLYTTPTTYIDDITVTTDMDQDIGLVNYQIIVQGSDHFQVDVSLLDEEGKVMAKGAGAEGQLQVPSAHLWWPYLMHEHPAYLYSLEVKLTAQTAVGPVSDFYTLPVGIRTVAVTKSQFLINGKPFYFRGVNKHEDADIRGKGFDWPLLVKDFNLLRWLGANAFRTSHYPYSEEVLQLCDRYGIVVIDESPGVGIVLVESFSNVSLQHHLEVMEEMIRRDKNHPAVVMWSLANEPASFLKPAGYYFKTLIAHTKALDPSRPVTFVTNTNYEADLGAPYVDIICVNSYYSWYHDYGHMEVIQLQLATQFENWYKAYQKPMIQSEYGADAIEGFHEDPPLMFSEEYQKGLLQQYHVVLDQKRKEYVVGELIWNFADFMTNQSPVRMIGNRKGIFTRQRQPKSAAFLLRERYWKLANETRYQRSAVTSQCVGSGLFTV
Method: as §1

α-D-giucosidase = biological target: T9, α-D-giucosidase (Saccharomyces cerevisiae, UniProt P53341); test: Glycosidase assay, α-D-glucosidase (Saccharomyces cerevisiae); type: biochemical; details: 0.2 mM, negative value = stabilisation/promotion, read-out: percentage inhibition
T9 construct: purchased Sigma
Method: as §1

β-D-glucosidase = test: Glycosidase assay, β-D-glucosidase (almond); type: biochemical; details: 0.2 mM, Almond (Prunus sp.), negative value = stabilisation/promotion
Method: as §1

β-glucuronidase [5] = biological target: T10, β-glucuronidase (Escherichia coli, UniProt P05804); test: Glycosidase assay, β-glucuronidase (E. coli); type: biochemical; details: 0.2 mM, negative value = stabilisation/promotion, read-out: percentage inhibition
T10 construct: purchased Sigma
Method: as §1

β-D-galactosidase = test: Glycosidase assay, β-D-galactosidase (bovine liver); type: biochemical; details: 0.2 mM, negative value = stabilisation/promotion
Method: as §1

[6] = tested on: N-acetyl-β-D-glucosaminidase; test: Glycosidase assay, N-acetyl-β-D-glucosaminidase (bovine kidney); type: biochemical; details: for percentage inhibition: 0.2 mM, N-acetyl-β-D-glucosaminidase, Bovine kidney, negative value = stabilisation/promotion; for IC50: bovine hexosaminidase, read-out: IC50 against the bovine hexosaminidase
Method: as §1

Naringinase = test: Glycosidase assay, naringinase (Penicillium decumbens); type: biochemical; details: 0.2 mM, negative value = stabilisation/promotion
Method: as §1

[7] = tested on: N-acetyl-β-D-glucosaminidase; test: Glycosidase assay, N-acetyl-β-D-glucosaminidase (jack bean); type: biochemical; details: 0.2 mM, negative value = stabilisation/promotion
Method: as §1

T10 sequence (P05804 whole entry): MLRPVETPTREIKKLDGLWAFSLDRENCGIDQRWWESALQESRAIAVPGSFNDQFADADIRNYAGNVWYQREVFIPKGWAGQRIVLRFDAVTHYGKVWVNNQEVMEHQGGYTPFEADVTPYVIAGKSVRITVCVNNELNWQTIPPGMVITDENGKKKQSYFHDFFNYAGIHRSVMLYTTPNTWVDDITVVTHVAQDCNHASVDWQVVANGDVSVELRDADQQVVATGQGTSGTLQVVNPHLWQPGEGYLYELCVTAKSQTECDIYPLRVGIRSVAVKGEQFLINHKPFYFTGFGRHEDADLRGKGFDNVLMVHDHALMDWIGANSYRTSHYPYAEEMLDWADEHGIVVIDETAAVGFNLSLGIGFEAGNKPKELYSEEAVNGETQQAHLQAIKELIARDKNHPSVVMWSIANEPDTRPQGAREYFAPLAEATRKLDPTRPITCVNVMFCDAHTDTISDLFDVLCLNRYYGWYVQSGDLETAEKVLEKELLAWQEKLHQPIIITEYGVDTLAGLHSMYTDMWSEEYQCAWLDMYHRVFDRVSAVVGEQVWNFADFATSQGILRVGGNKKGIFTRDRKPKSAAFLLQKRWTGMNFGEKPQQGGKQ
T4 sequence (Q8J2T0 97-600): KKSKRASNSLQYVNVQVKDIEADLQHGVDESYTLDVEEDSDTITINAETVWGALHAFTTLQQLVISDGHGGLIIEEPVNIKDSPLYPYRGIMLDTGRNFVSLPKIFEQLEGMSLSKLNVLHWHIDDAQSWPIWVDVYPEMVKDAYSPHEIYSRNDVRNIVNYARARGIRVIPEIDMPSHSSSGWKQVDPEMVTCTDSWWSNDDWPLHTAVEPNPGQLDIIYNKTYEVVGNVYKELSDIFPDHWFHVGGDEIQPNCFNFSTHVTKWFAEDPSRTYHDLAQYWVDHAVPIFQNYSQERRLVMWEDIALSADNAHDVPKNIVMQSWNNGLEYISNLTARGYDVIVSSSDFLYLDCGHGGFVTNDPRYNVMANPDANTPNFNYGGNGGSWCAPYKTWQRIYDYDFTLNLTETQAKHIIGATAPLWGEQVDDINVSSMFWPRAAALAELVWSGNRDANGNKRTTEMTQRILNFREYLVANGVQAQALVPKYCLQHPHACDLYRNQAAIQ
T7 sequence (Q653V7 34-885): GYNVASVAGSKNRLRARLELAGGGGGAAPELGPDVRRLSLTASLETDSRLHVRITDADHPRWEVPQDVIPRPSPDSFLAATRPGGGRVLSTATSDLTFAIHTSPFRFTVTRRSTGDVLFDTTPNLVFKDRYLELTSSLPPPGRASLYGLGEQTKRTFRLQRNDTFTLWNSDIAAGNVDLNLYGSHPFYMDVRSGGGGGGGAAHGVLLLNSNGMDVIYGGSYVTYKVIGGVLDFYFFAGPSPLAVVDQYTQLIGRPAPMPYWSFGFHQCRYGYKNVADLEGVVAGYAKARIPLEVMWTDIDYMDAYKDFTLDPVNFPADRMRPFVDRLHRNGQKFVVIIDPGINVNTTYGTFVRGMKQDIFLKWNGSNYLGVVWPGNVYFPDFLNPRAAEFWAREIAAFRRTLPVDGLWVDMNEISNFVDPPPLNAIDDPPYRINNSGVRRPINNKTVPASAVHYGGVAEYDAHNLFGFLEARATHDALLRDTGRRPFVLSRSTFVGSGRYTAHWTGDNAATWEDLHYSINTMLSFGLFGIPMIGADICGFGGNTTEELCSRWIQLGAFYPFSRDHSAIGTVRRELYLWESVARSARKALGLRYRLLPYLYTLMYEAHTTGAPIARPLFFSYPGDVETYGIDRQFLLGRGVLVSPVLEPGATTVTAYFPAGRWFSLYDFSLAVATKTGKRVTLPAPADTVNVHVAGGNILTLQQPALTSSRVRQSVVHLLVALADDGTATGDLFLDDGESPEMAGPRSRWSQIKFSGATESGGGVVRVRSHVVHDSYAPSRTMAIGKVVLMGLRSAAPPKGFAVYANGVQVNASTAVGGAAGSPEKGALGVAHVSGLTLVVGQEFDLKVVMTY
T3 sequence (P69328 25-640): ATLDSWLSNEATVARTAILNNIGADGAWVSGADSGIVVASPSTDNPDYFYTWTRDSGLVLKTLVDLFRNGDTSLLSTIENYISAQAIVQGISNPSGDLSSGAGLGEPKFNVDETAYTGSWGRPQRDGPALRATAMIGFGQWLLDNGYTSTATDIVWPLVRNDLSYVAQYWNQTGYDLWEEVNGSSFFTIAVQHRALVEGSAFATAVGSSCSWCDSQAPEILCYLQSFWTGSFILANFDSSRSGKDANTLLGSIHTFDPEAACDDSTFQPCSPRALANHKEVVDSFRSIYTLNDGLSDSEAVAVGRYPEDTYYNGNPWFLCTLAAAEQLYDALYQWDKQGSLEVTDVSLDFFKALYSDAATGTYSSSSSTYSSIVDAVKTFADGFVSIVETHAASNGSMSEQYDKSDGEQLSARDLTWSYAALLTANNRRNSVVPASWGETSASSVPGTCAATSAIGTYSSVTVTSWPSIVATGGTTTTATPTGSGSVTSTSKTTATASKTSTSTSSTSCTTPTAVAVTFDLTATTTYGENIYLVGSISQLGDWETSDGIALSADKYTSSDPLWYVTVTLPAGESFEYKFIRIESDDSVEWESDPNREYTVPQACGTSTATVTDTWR
T6 sequence (Q42656 16-378): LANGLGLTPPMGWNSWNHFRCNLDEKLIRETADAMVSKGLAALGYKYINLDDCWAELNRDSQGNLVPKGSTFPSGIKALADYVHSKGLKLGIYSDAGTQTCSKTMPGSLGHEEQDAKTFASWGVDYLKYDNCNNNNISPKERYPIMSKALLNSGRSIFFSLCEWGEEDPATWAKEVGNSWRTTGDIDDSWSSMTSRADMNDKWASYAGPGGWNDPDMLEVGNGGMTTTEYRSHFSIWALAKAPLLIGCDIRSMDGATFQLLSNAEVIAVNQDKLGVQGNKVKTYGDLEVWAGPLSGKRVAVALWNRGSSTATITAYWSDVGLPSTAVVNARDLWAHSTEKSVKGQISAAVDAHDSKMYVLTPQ
T9 sequence (P53341 whole entry): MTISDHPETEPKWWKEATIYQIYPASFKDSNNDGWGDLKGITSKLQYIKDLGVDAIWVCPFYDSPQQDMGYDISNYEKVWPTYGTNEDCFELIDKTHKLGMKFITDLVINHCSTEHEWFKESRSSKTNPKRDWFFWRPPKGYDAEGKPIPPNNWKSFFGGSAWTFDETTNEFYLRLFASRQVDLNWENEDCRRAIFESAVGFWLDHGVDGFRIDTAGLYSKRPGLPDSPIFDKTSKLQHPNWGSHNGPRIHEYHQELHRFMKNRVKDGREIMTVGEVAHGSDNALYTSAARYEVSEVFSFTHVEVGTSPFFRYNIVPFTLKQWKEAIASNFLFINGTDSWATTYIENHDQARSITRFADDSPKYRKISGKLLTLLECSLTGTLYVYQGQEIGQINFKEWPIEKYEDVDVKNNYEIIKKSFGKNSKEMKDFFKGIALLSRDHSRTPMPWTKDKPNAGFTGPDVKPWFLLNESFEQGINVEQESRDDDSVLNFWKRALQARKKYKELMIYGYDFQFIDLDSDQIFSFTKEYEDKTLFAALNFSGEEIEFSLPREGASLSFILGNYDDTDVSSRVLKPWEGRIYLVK

Compound	inhibition at 200 µM (α-L-fucosidase)	inhibition at 200 µM (α-D-mannosidase)	inhibition at 200 µM (Amyloglucosidase)	inhibition at 200 µM [1]	percentage inhibition (α-D-glucosidase [2])	percentage inhibition (β-D-mannosidase)	inhibition at 400 µM (glycogen phosphorylase b)	inhibition at 200 µM (α-D-galactosidase)	inhibition at 200 µM (α-D-glucosidase [3])	inhibition at 200 µM (β-glucuronidase [4])	inhibition at 200 µM (α-D-giucosidase)	percentage inhibition (β-D-glucosidase)	inhibition at 200 µM (β-glucuronidase [5])	percentage inhibition (β-D-galactosidase)	percentage inhibition [6]	IC50 [6]	percentage inhibition (Naringinase)	percentage inhibition [7]	inhibition at 200 µM (α-D-mannosidase; 0.2 mM, α-D-mannosidase, Jack bean (Canavalia ensiformis), negative value = stabilisation/promotion)	IC50 (β-glucuronidase [4]; bovine β-glucuronidase, read-out: IC50 against the bovine β-glucuronidase)
O=C(O)CCCNCC1(O)OCC(O)C(O)C1O (stereo not shown) [1-Deoxy-1-(N-γ-aminobutyric acid)fructose]	-1.3%	-6.2%	-2.9%	-19.2%	0.7%	−10.3%	5.5%	-7.1%	-4.2%	-1.2%	-4.2%	−0.9%	-0.8%	1.3%	55.3%	200 µM	0.2%	−6.3%		
N=C(N)NCCCC(NCC1(O)OCC(O)C(O)C1O)C(=O)O [N2-β-D-Fructopyranos-1-yl-Arginine, 5-carbamimidamido-2-{[(2,3,4,5-tetrahydroxytetrahydro-2H-pyran-2-yl)methyl]amino}pentanoic acid]	-9.3%		15%	-15.3%	−1.7%	−8.1%	14.2%	3.4%	-6%	85.2%	-1.4%	7.6%	-9%	−3.9%	88.5%	7.7 µM	4.1%	−0.8%	35.2%	101 µM
